Test results from US10112939B2, “Tied-back benzamide derivatives as potent rock inhibitors” (Bristol-Myers Squibb Company, priority 2014, dated 2018).
“And” between values parts separate entries of the source, which are not always exact repeats. Equal values may be shown once.

Biological target: ROCK2 (Homo sapiens (Human), UniProt O75116)
Assay: ROCK assay (peptide substrate phosphorylation, LABCHIP 3000 Reader)
Format: biochemical
Settings: 5 μM ATP, 1.5 μM peptide substrate
Method: Compounds were dissolved in DMSO so that the final concentration of DMSO was <2%, and the reaction was initiated with Rho kinase variants. After incubation, the reaction was terminated by the addition of EDTA and the phosphorylated and non-phosphorylated peptides separated using a LABCHIP® 3000 Reader (Caliper Life Sciences). […] Compounds were tested in dose-response format, and the inhibition of kinase activity was calculated at each concentration of compound.

Sequence of ROCK2 (O75116 whole entry, species assumed): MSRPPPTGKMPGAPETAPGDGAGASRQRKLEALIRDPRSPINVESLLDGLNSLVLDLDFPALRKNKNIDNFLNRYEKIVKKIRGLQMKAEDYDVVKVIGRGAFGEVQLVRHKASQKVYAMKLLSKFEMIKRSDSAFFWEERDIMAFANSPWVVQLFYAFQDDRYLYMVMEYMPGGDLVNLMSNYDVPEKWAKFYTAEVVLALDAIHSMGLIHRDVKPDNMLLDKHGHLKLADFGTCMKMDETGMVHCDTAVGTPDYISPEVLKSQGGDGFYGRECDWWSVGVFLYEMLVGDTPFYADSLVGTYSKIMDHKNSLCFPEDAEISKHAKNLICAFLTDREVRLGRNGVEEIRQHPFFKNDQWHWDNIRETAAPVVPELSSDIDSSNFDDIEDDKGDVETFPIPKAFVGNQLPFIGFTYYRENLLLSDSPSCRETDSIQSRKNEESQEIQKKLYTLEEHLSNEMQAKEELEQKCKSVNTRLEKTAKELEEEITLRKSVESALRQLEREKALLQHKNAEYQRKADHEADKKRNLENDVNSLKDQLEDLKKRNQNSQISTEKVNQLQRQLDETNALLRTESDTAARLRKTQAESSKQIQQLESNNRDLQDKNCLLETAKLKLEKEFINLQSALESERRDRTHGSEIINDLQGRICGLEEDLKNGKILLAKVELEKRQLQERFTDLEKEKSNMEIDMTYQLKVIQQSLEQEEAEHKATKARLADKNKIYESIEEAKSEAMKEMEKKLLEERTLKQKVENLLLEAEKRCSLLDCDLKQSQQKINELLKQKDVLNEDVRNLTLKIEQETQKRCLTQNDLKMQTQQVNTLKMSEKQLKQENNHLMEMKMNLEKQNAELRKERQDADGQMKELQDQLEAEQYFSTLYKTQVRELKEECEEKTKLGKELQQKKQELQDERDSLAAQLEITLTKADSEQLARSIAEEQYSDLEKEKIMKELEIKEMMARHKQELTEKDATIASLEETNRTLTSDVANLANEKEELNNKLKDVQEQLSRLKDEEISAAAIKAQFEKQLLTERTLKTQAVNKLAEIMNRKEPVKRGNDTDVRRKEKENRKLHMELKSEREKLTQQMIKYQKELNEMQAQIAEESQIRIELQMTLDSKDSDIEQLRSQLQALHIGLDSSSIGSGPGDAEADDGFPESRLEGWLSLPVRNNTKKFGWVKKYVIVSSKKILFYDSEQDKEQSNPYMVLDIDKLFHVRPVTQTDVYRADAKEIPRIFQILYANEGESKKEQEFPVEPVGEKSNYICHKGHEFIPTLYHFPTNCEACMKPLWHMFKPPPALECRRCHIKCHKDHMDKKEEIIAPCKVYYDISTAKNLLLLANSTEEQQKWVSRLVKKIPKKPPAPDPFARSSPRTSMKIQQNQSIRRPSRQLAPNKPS

Compound | IC50
COc1cccc(C2CCCN2C(=O)c2ccc(-c3ccnc(N)c3)c(OC)c2)c1 (stereo not drawn) [Example 81, 4-{2-Methoxy-4-[2-(3-methoxyphenyl)pyrrolidine-1-carbonyl]phenyl} pyridin-2-amine] | 0.158 µM
CCc1cc(C(=O)N2CC(O)C[C@@H]2c2ccccc2F)ccc1-c1cn[nH]c1 (stereo partly drawn) [Example 101, (5R)-1-[3-Ethyl-4-(1H-pyrazol-4-yl)benzoyl]-5-(2-fluorophenyl) pyrrolidin-3-ol] | 0.0651 µM
COc1cccc(C2CCCN2C(=O)c2ccc(-c3ccnc4[nH]ccc34)c(OC)c2)c1 (stereo not drawn) [Example 82, 1-(3-methoxy-4-{1H-pyrrolo[2,3-b]pyridin-4-yl}benzoyl)-2-(3-methoxyphenyl) pyrrolidine] | 0.0568 µM
O=C(c1ccc(-c2cn[nH]c2)c(OC(F)F)c1)N1C[C@@H](O)C[C@@H]1c1ccccc1F [Example 95, (3S,5R)-1-[3-(Difluoromethoxy)-4-(1H-pyrazol-4-yl)benzoyl]-5-(2-fluorophenyl)pyrrolidin-3-ol] | 0.0441 µM and 0.0284 µM
COc1cc(C(=O)N2CCCC(c3ccccc3)C2)ccc1-c1cn[nH]c1 (stereo not drawn) [Example 7, 1-[3-methoxy-4-(1H-pyrazol-4-yl)benzoyl]-3-phenylpiperidine] | 1.43 µM
COc1cc(C(=O)N2CCCC2c2cccc(OCC(F)F)c2)ccc1-c1cn[nH]c1 (stereo not drawn) [Example 102, 4-(4-{2-[3-(2,2-Difluoroethoxy)phenyl]pyrrolidine-1-carbonyl}-2-methoxyphenyl)-1H-pyrazole] | 0.411 µM
COc1cc(C(=O)N2CC(O)C[C@@H]2c2cccc(C(=O)NC3(C)CC3)c2)ccc1-c1cn[nH]c1 (stereo partly drawn) [Example 57, 3-[(2R)-4-hydroxy-1-[3-methoxy-4-(1H-pyrazol-4-yl)benzoyl]pyrrolidin-2-yl]-N-(1-methylcyclopropyl) benzamide] | 0.0434 µM
COc1cc(C(=O)N2CCCC2Cc2ccccc2)ccc1-c1cn[nH]c1 (stereo not drawn) [Example 14, 4-[4(2-benzyl-pyrrolidine-1-carbonyl)-2-methoxy-phenyl]-1H-pyrazole] | 0.183 µM

Continued by falling IC50, values first:

IC50 | Compound
0.0414 µM | COc1cc(C(=O)N2CCCC2c2ccc(F)cc2)ccc1-c1cn[nH]c1 (stereo not drawn) [Example 19, 4-{4-[2-(4-fluorophenyl)pyrrolidine-1-carbonyl]-2-methoxyphenyl}-1H-pyrazole]
0.0322 µM | COc1cc(C(=O)NC2CCc3ccccc32)ccc1-c1cn[nH]c1 (stereo not drawn) [Example 5, N-(2,3-dihydro-1H-inden-1-yl)-3-methoxy-4-(1H-pyrazol-4-yl)benzamide]
0.0243 µM | COc1cc(C(=O)N2CC(F)(F)C[C@@H]2c2cccc(C(=O)NC3CC3)c2)ccc1-c1ccncc1 [Example 79, N-Cyclopropyl-3-[(2R)-4,4-difluoro-1-[3-methoxy-4-(pyridin-4-yl)benzoyl]pyrrolidin-2-yl]benzamide]
0.00717 µM | COc1cc(C(=O)N2CC(O)C[C@@H]2c2cccc(C(=O)NC3CCOCC3)c2)ccc1-c1cn[nH]c1 (stereo partly drawn) [Example 56, 3-[(2R)-4-hydroxy-1-[3-methoxy-4-(1H-pyrazol-4-yl)benzoyl]pyrrolidin-2-yl]-N-(oxan-4-yl)benzamide]
0.0054 µM | COc1cc(C(=O)N2CC(F)(F)C[C@@H]2c2cccc(C(=O)NC3CC3)c2)ccc1-c1cn[nH]c1 [Example 80, N-Cyclopropyl-3-[(2R)-4,4-difluoro-1-[3-methoxy-4-(1H-pyrazol-4-yl)benzoyl]pyrrolidin-2-yl]benzamide]
0.00532 µM | COc1cc(C(=O)N2CC(O)C[C@@H]2c2cccc(C(=O)NCc3cc(C)no3)c2)ccc1-c1cn[nH]c1 (stereo partly drawn) [Example 58, 3-[(2R)-4-hydroxy-1-[3-methoxy-4-(1H-pyrazol-4-yl)benzoyl]pyrrolidin-2-yl]-N-[(3-methyl-1,2-oxazol-5-yl)methyl] benzamide]
0.00271 µM | COc1cc(C(=O)N2CC(O)C[C@@H]2c2cccc(C(=O)NCC3CC3)c2)ccc1-c1cn[nH]c1 (stereo partly drawn) [Example 51, N-(cyclopropylmethyl)-3-[(2R)-4-hydroxy-1-[3-methoxy-4-(1H-pyrazol-4-yl)benzoyl]pyrrolidin-2-yl]benzamide]
